Reference: the CheMixHub viscosity set
Values joined by “and” are separate entries in the source; they are usually repeats but may differ in a detail not shown here. Equal entries are not always repeated.

Assay: xn = mol fraction of the nth substance listed

OCCOCCO + O
Details | viscosity
293.15 K, 100 kPa, x2 = 0.013 | 37.31 mPa·s
293.15 K, 100 kPa, x2 = 0.037 | 35.38 mPa·s and 33.15 mPa·s
293.15 K, 100 kPa, x2 = 0.038 | 34.7 mPa·s
293.15 K, 100 kPa, x2 = 0.075 | 34.97 mPa·s
293.15 K, 100 kPa, x2 = 0.082 | 34.55 mPa·s
298.15 K, 100 kPa, x2 = 0.013 | 29.02 mPa·s
298.15 K, 100 kPa, x2 = 0.037 | 27.76 mPa·s
298.15 K, 100 kPa, x2 = 0.075 | 27.47 mPa·s
298.15 K, 100 kPa, x2 = 0.082 | 27.12 mPa·s
298.15 K, 101.33 kPa, x2 = 0.1041 | 25.71 mPa·s
298.15 K, 101.33 kPa, x2 = 0.2105 | 24.14 mPa·s
298.15 K, 101.33 kPa, x2 = 0.2697 | 22.9 mPa·s
298.15 K, 101.33 kPa, x2 = 0.4009 | 19.9 mPa·s
298.15 K, 101.33 kPa, x2 = 0.5145 | 16.51 mPa·s
298.15 K, 101.33 kPa, x2 = 0.6157 | 12.99 mPa·s
298.15 K, 101.33 kPa, x2 = 0.7095 | 9.442 mPa·s
298.15 K, 101.33 kPa, x2 = 0.825 | 5.193 mPa·s
298.15 K, 101.33 kPa, x2 = 0.9059 | 2.772 mPa·s
303.15 K, 100 kPa, x2 = 0.013 | 23.06 mPa·s
303.15 K, 100 kPa, x2 = 0.038 | 21.92 mPa·s
303.15 K, 100 kPa, x2 = 0.075 | 21.95 mPa·s
303.15 K, 101 kPa, x1 = 0.002 | 0.836 mPa·s
303.15 K, 101 kPa, x1 = 0.004 | 0.863 mPa·s
303.15 K, 101 kPa, x1 = 0.005 | 0.883 mPa·s
303.15 K, 101 kPa, x1 = 0.007 | 0.91 mPa·s
303.15 K, 101 kPa, x1 = 0.009 | 0.938 mPa·s
303.15 K, 101 kPa, x1 = 0.01 | 0.975 mPa·s and 1.02 mPa·s and 1.076 mPa·s
303.15 K, 101 kPa, x1 = 0.018 | 1.171 mPa·s
303.15 K, 101.33 kPa, x1 = 0.0004 | 0.778 mPa·s
303.15 K, 101.33 kPa, x1 = 0.0007 | 0.785 mPa·s
303.15 K, 101.33 kPa, x1 = 0.0015 | 0.788 mPa·s
303.15 K, 101.33 kPa, x1 = 0.0027 | 0.804 mPa·s
303.15 K, 101.33 kPa, x1 = 0.0047 | 0.836 mPa·s
303.15 K, 101.33 kPa, x1 = 0.0193 | 1.02 mPa·s
303.15 K, 101.33 kPa, x1 = 0.0548 | 1.579 mPa·s
303.15 K, 101.33 kPa, x1 = 0.0991 | 2.467 mPa·s
303.15 K, 101.33 kPa, x1 = 0.1966 | 4.98 mPa·s
303.15 K, 101.33 kPa, x1 = 0.2956 | 7.943 mPa·s
303.15 K, 101.33 kPa, x1 = 0.3956 | 10.97 mPa·s
303.15 K, 101.33 kPa, x1 = 0.4905 | 13.62 mPa·s
303.15 K, 101.33 kPa, x1 = 0.6406 | 17.06 mPa·s
303.15 K, 101.33 kPa, x1 = 0.8543 | 20.37 mPa·s
308.15 K, 100 kPa, x2 = 0.013 | 18.69 mPa·s
308.15 K, 100 kPa, x2 = 0.037 | 18.11 mPa·s and 16.84 mPa·s
308.15 K, 100 kPa, x2 = 0.082 | 17.7 mPa·s
308.15 K, 101 kPa, x1 = 0.002 | 0.736 mPa·s
308.15 K, 101 kPa, x1 = 0.004 | 0.753 mPa·s
308.15 K, 101 kPa, x1 = 0.005 | 0.805 mPa·s
308.15 K, 101 kPa, x1 = 0.007 | 0.832 mPa·s
308.15 K, 101 kPa, x1 = 0.009 | 0.867 mPa·s
308.15 K, 101 kPa, x1 = 0.01 | 0.902 mPa·s and 0.938 mPa·s and 0.991 mPa·s
308.15 K, 101 kPa, x1 = 0.018 | 1.082 mPa·s
308.15 K, 101 kPa, x1 = 0.02 | 1.028 mPa·s
308.15 K, 101 kPa, x1 = 0.7525 | 15.65 mPa·s
308.15 K, 101.33 kPa, x1 = 0.0004 | 0.704 mPa·s
308.15 K, 101.33 kPa, x1 = 0.0007 | 0.71 mPa·s
308.15 K, 101.33 kPa, x1 = 0.0015 | 0.717 mPa·s
308.15 K, 101.33 kPa, x1 = 0.0027 | 0.73 mPa·s
308.15 K, 101.33 kPa, x1 = 0.0047 | 0.749 mPa·s
308.15 K, 101.33 kPa, x1 = 0.0193 | 0.905 mPa·s
308.15 K, 101.33 kPa, x1 = 0.0991 | 2.107 mPa·s
308.15 K, 101.33 kPa, x1 = 0.1966 | 4.169 mPa·s
308.15 K, 101.33 kPa, x1 = 0.2956 | 6.484 mPa·s
308.15 K, 101.33 kPa, x1 = 0.3956 | 8.911 mPa·s
308.15 K, 101.33 kPa, x1 = 0.4905 | 10.95 mPa·s
308.15 K, 101.33 kPa, x1 = 0.5794 | 12.64 mPa·s
308.15 K, 101.33 kPa, x1 = 0.775 | 15.47 mPa·s
308.15 K, 101.33 kPa, x1 = 0.8543 | 16.25 mPa·s
308.15 K, 101.33 kPa, x1 = 0.917 | 16.82 mPa·s
313.15 K, 100 kPa, x2 = 0.013 | 15.39 mPa·s
313.15 K, 100 kPa, x2 = 0.037 | 14.96 mPa·s
313.15 K, 100 kPa, x2 = 0.038 | 15.25 mPa·s
313.15 K, 100 kPa, x2 = 0.075 | 14.8 mPa·s
313.15 K, 101 kPa, x1 = 0.002 | 0.67 mPa·s
313.15 K, 101 kPa, x1 = 0.004 | 0.685 mPa·s
313.15 K, 101 kPa, x1 = 0.005 | 0.703 mPa·s
313.15 K, 101 kPa, x1 = 0.007 | 0.738 mPa·s
313.15 K, 101 kPa, x1 = 0.009 | 0.78 mPa·s
313.15 K, 101 kPa, x1 = 0.01 | 0.83 mPa·s and 0.872 mPa·s and 0.907 mPa·s
313.15 K, 101 kPa, x1 = 0.018 | 0.994 mPa·s
313.15 K, 101 kPa, x1 = 0.02 | 0.958 mPa·s
318.15 K, 100 kPa, x2 = 0.013 | 12.84 mPa·s
318.15 K, 100 kPa, x2 = 0.037 | 12.51 mPa·s
318.15 K, 100 kPa, x2 = 0.038 | 12.4 mPa·s
318.15 K, 100 kPa, x2 = 0.075 | 12.37 mPa·s
318.15 K, 101 kPa, x1 = 0.002 | 0.612 mPa·s
318.15 K, 101 kPa, x1 = 0.004 | 0.621 mPa·s
318.15 K, 101 kPa, x1 = 0.005 | 0.654 mPa·s
318.15 K, 101 kPa, x1 = 0.007 | 0.688 mPa·s
318.15 K, 101 kPa, x1 = 0.009 | 0.729 mPa·s
318.15 K, 101 kPa, x1 = 0.01 | 0.779 mPa·s and 0.821 mPa·s and 0.864 mPa·s
318.15 K, 101 kPa, x1 = 0.018 | 0.949 mPa·s
318.15 K, 101 kPa, x1 = 0.02 | 0.906 mPa·s
323.15 K, 100 kPa, x2 = 0.013 | 10.85 mPa·s
323.15 K, 100 kPa, x2 = 0.037 | 10.58 mPa·s and 9.873 mPa·s
323.15 K, 100 kPa, x2 = 0.038 | 10.49 mPa·s
323.15 K, 100 kPa, x2 = 0.075 | 10.44 mPa·s
323.15 K, 100 kPa, x2 = 0.082 | 10.35 mPa·s
323.15 K, 101 kPa, x1 = 0.002 | 0.555 mPa·s
323.15 K, 101 kPa, x1 = 0.004 | 0.571 mPa·s
323.15 K, 101 kPa, x1 = 0.005 | 0.587 mPa·s
323.15 K, 101 kPa, x1 = 0.007 | 0.619 mPa·s
323.15 K, 101 kPa, x1 = 0.009 | 0.667 mPa·s
323.15 K, 101 kPa, x1 = 0.01 | 0.707 mPa·s and 0.747 mPa·s and 0.78 mPa·s
323.15 K, 101 kPa, x1 = 0.018 | 0.869 mPa·s
323.15 K, 101 kPa, x1 = 0.02 | 0.828 mPa·s
